Experimental findings from patent US7030137B2, “Substituted thiophenes with antibacterial activity” (Replidyne, Inc., priority 2003, dated 2006) are described below.

Values after ≈ are worked out from the molar mass of the structure shown. Structures can show the parent of a compound that is named as a salt. Bounds are passed on as bounds.

Assay type in all cases: cell-based
For experiment [1], the system named is H. influenzae. The experiment is described as follows: MIC H. influenzae (standard MIC assay modified by inclusion of cyclodextrin). Conditions: Haemophilus influenzae. Here is the method:
(§1) Compounds of the present invention were assayed for antibacterial activity against a range of pathogenic organisms (strains of S aureus, S pneumoniae, E faecalis, H influenzae and M catarrhalis) in a standard MIC assay modified by the inclusion of cyclodextrin, to assist with solubility.

Experiment [2] concerns S. aureus. Briefly: MIC S. aureus (standard MIC assay modified by inclusion of cyclodextrin). The conditions noted are these: Staphylococcus aureus. Here is the method:
as §1

Experiment [3] relates to S. aureus, S. pneumoniae, and E. faecalis. The experiment is described as follows: MIC against some strains of gram positive pathogens. The method, then:
as §1

For experiment [4], the system named is M catarrhalis and H. influenzae. Briefly: MIC against some strains of gram negative pathogens. The conditions noted are these: Haemophilus influenzae. The method, then: as §1
Experiment [5] deals with S. pneumo. The experiment is described as follows: MIC S. pneumo (standard MIC assay modified by inclusion of cyclodextrin). The conditions noted are these: Streptococcus pneumoniae. Here is the method:
as §1

[6] abbreviates: prior art thiophenes of U.S. Pat. No. 6,320,051.

In the case of `Cc1c(CNCCCNc2nc3ccccc3[nH]2)sc(C(F)(F)F)c1Br` [Example 24, N-(4-bromo-3-methyl-5-trifluoromethylthiophen-2-ylmethyl)-N′-(1H-benzimidazole)propane-1,3-diamine], the MIC was 8 µg/mL (≈ 17.9 µM) in experiment [1]; 0.5 µg/mL (≈ 1.12 µM) in experiment [2]; 0.06 to 0.5 µg/mL (≈ 0.134 to 1.12 µM) in experiment [3]; 0.13 to 8 µg/mL (≈ 0.291 to 17.9 µM) in experiment [4]; 1 µg/mL (≈ 2.24 µM) in experiment [5].

On to `O=c1cc(NCCCNCc2sc(Br)c(Br)c2Br)[nH]c2ccccc12` [Example 65], for which the MIC is greater than 64 µg/mL in experiment [1] (setting [6]), 2 µg/mL (≈ 3.64 µM) in experiment [2] (setting [6]) and 1 µg/mL (≈ 1.82 µM) in experiment [5] (setting [6]).

With `Cc1c(CNCCCNc2nc3ccccc3[nH]2)sc(C(F)F)c1Br` [Example 23, N-(4-bromo-5-difluoromethyl-3-methylthiophen-2-ylmethyl)-N′-(1H-benzimidazole)propane-1,3-diamine], the MIC in experiment [1] is 8 µg/mL (≈ 18.6 µM); in experiment [2] it was 1 µg/mL (≈ 2.33 µM); in experiment [3], 1 to 2 µg/mL (≈ 2.33 to 4.66 µM); in experiment [4] it was 0.13 to 8 µg/mL (≈ 0.303 to 18.6 µM); in experiment [5], 4 µg/mL (≈ 9.32 µM).

Turning to `Cc1c(CNCCCNc2cc(=O)c3ccccc3[nH]2)sc(Br)c1Br` [Example 1, N-(4,5-Dibromo-3-methylthiophen-2-ylmethyl)-N′-(1H-quinolin-4-one)propane-1,3-diamine], the MIC in experiment [1] is 32 µg/mL (≈ 65.9 µM); in experiment [2], 0.25 µg/mL (≈ 0.515 µM); in experiment [3] it was 0.06 to 0.5 µg/mL (≈ 0.124 to 1.03 µM); in experiment [5], 0.06 µg/mL (≈ 0.124 µM).

As to `Cc1c(CNCCCNc2nc3ncccc3[nH]2)sc(C(F)F)c1Br` [Example 16, N-(4-bromo-5-difluoromethyl-3-methylthiophen-2-ylmethyl)-N′-(1H-imidazo[4,5-b]pyridin-2-yl)-propane-1,3-diamine], the MIC was 64 µg/mL (≈ 149 µM) in experiment [1], 0.5 µg/mL (≈ 1.16 µM) in experiment [2], 0.06 to 0.5 µg/mL (≈ 0.139 to 1.16 µM) in experiment [3] and 4 µg/mL (≈ 9.3 µM) in experiment [5].

With `CC=Cc1c(CNCCCNc2cc(=O)c3ccccc3[nH]2)sc(CC)c1Br` [Example 10, N-(4-bromo-3-(1-propenyl)-5-ethylthiophen-2-ylmethyl)-N′-(1H-quinolin-4-one)propane-1,3-diamine], the MIC in experiment [1] was 8 µg/mL (≈ 17.4 µM); in experiment [2] it was 0.06 µg/mL (≈ 0.13 µM); in experiment [3] it was 0.06 to 0.5 µg/mL (≈ 0.13 to 1.09 µM); in experiment [4], 0.13 to 8 µg/mL (≈ 0.282 to 17.4 µM); in experiment [5], 0.25 µg/mL (≈ 0.543 µM).

Consider `Cc1c(CNCCCNc2cc(=O)c3ccccc3[nH]2)sc(C(F)(F)F)c1Br` [Example 8, N-(4-bromo-3-methyl-5-trifluoromethylthiophen-2-ylmethyl)-N′-(1H-quinolin-4-one)propane-1,3-diamine], for which the MIC was 64 µg/mL (≈ 135 µM) in experiment [1], 0.13 µg/mL (≈ 0.274 µM) in experiment [2], 0.06 to 0.5 µg/mL (≈ 0.126 to 1.05 µM) in experiment [3] and 0.13 µg/mL (≈ 0.274 µM) in experiment [5].

As to `Cc1c(CNCCCNc2nc3nnccc3[nH]2)sc(C(F)(F)F)c1Br` [Example 12, N-(4-bromo-3-methyl-5-trifluoromethylthiophen-2-ylmethyl)-N′-(5H-imidazo[4,5-c]pyridazin-6-yl)propane-1,3-diamine dihydrochloride], the MIC is 0.25 µg/mL in experiment [1]; 0.5 µg/mL in experiment [2]; 0.06 to 0.5 µg/mL in experiment [3]; 0.13 to 8 µg/mL in experiment [4]; 2 µg/mL in experiment [5].

On to `Cc1c(CNCCCNc2nc3cscc3[nH]2)sc(C(F)(F)F)c1Br` [Example 20, N-(4-Bromo-3-methyl-5-trifluoromethylthiophen-2-ylmethyl)-N′-(1H-thieno[3,4-d]imidazol-2-yl)propane-1,3-diamine], for which the MIC in experiment [1] is 16 µg/mL (≈ 35.3 µM); in experiment [2], 0.25 µg/mL (≈ 0.551 µM); in experiment [3], 0.06 to 0.5 µg/mL (≈ 0.132 to 1.1 µM); in experiment [5] it was 0.5 µg/mL (≈ 1.1 µM).

As to `C=C(F)c1sc(CNCCCNc2nc3nnccc3[nH]2)c(C)c1Br` [Example 14, N-(4-bromo-5-(1-fluorovinyl)-3-methylthiophen-2-ylmethyl)-N′-(5H-imidazo[4,5-c]pyridazin-6-yl)propane-1,3-diamine dihydrochloride], the MIC in experiment [1] is 0.13 µg/mL; in experiment [2] it was 0.25 µg/mL; in experiment [3], 0.06 to 0.5 µg/mL; in experiment [4], 0.13 to 8 µg/mL; in experiment [5] it was 0.25 µg/mL.

Consider `CC#Cc1c(CNCCCNc2cc(=O)c3ccccc3[nH]2)sc(CC)c1Br` [Example 9, N-(4-bromo-3-(1-propynyl)-5-ethylthiophen-2-ylmethyl)-N′-(1H-quinolin-4-one)propane-1,3-diamine], for which the MIC is 64 µg/mL (≈ 140 µM) in experiment [1], 0.06 µg/mL (≈ 0.131 µM) in experiment [2], 0.06 to 0.5 µg/mL (≈ 0.131 to 1.09 µM) in experiment [3] and 0.06 µg/mL (≈ 0.131 µM) in experiment [5].

Regarding `Cc1c(CNCCCNc2cc(=O)c3ccccc3[nH]2)sc(C2CC2)c1Br` [Example 6, N-(4-bromo-5-cyclopropyl-3-methylthiophen-2-ylmethyl)-N′-(1H-quinolin-4-one)propane-1,3-diamine], the MIC in experiment [1] is 32 µg/mL (≈ 71.7 µM); in experiment [2] it was 0.06 µg/mL (≈ 0.134 µM); in experiment [3] it was 0.06 to 0.5 µg/mL (≈ 0.134 to 1.12 µM); in experiment [5], 0.13 µg/mL (≈ 0.291 µM).

With `CCc1sc(CNCCCNc2cc(=O)c3ccccc3[nH]2)c(C)c1Br` [Example 5, N-(4-bromo-5-ethyl-3-methylthiophen-2-ylmethyl)-N′-(1H-quinolin-4-one)propane-1,3-diamine], the MIC is 64 µg/mL (≈ 147 µM) in experiment [1], 0.06 µg/mL (≈ 0.138 µM) in experiment [2], 0.06 to 0.5 µg/mL (≈ 0.138 to 1.15 µM) in experiment [3] and 0.25 µg/mL (≈ 0.576 µM) in experiment [5].

As for `C#Cc1sc(CNCCCNc2cc(=O)c3ccccc3[nH]2)c(C)c1Br` [Example 2, N-(4-bromo-5-ethynyl-3-methylthiophen-2-ylmethyl)-N′-(1H-quinolin-4-one)propane-1,3-diamine], the MIC in experiment [1] was greater than 64 µg/mL; in experiment [2], 0.13 µg/mL (≈ 0.302 µM); in experiment [3] it was 0.06 to 0.5 µg/mL (≈ 0.139 to 1.16 µM); in experiment [5], 0.06 µg/mL (≈ 0.139 µM).

Consider `O=c1cc(NC[C@H]2CCC[C@@H]2NCc2cc(Br)c(Br)s2)[nH]c2ccccc12` [Example 74], for which the results for the MIC in experiment [1] (setting [6]), in experiment [2] (setting [6]) and in experiment [5] (setting [6]) were greater than 64 µg/mL, 2 µg/mL (≈ 3.91 µM) and 2 µg/mL (≈ 3.91 µM), respectively.

Turning to `C=Cc1sc(CNCCCNc2cc(=O)c3ccccc3[nH]2)c(C)c1Br` [Example 3, N-(4-bromo-3-methyl-5-vinylthiophen-2-ylmethyl)-N′-(1H-quinolin-4-one)propane-1,3-diamine], the MIC in experiment [1] was 16 µg/mL (≈ 37 µM); in experiment [2], 0.06 µg/mL (≈ 0.139 µM); in experiment [3], 0.06 to 0.5 µg/mL (≈ 0.139 to 1.16 µM); in experiment [5], 0.06 µg/mL (≈ 0.139 µM).

`O=c1cc(NCCCNCc2cc(Br)c(Br)s2)[nH]c2ccccc12` [Example 37]: the MIC in experiment [1] (setting [6]) was greater than 64 µg/mL; in experiment [2] (setting [6]), 8 µg/mL (≈ 17 µM); in experiment [5] (setting [6]), 1 µg/mL (≈ 2.12 µM).

Take `Cc1c(CNCCCNc2nc3cscc3[nH]2)sc(C(F)F)c1Br` [Example 19, N-(4-Bromo-5-difluoromethyl-3-methylthiophen-2-ylmethyl)-N′-(1H-thieno[3,4-d]imidazol-2-yl)propane-1,3-diamine]: the MIC in experiment [1] was 16 µg/mL (≈ 36.8 µM); in experiment [2] it was 0.13 µg/mL (≈ 0.299 µM); in experiment [3], 0.06 to 0.5 µg/mL (≈ 0.138 to 1.15 µM); in experiment [5], 0.5 µg/mL (≈ 1.15 µM).

`Cc1c(CNCCCNc2cc(=O)c3ccccc3[nH]2)sc(C(F)F)c1Br` [Example 7, N-(4-bromo-5-difluoromethyl-3-methylthiophen-2-ylmethyl)-N′-(1H-quinolin-4-one)propane-1,3-diamine]: the MIC in experiment [1] is 64 µg/mL (≈ 140 µM); in experiment [2], 1 µg/mL (≈ 2.19 µM); in experiment [3], 1 to 2 µg/mL (≈ 2.19 to 4.38 µM); in experiment [5], 1 µg/mL (≈ 2.19 µM).
